Reference: US20040198788A1, “Medicinal compositions containing angiotensin II receptor antagonist” (SANKYO COMPANY, LIMITED, priority 2001, published 2004)

Test system: Watanabe heritable hyperlipidemic (WHHL) rabbits
Assay: Determination of aortic lesioned area
Type: in vivo, rabbit
Settings: olmesartan 0.5 mg/kg, compound A 20 mg/kg
Description: Determination of Aortic Lesioned Area Watanabe heritable hyperlipidemic (WHHL) rabbits aged 16 weeks were divided in 4 groups consisting of 12 or 13 animals each: control group (5% gum arabic solution), olmesartan (0.5 mg/kg) group, compound A (20 mg/kg) group, and combination group of olmesartan (0.5 mg/kg) and compound A (20 mg/kg). These test agents were orally administered for 24 weeks. After the 24th week, the rabbits were sacrificed and their aorta were isolated to determine the aortic lumen area and arteriosclerotic lesion area in the aortic lumen. Then the percentage of arteriosclerotic lesion area in the aortic lumen [arteriosclerotic lesion area in the aortic lumen/the aortic lumen area]×100 (%)] was calculated.

## CCCCCCCCN1CCc2c(C)c(CC(=O)O)c(C)c(NC(=O)C(C)(C)C)c21.O=S(=O)(O)O [compound A, N-(1-octyl-5-carboxymethyl-4,6-dimethylindolin-7-yl)-2,2-dimethylpropaneamide sulfate]
WHHL rabbits aged 16 weeks, oral administration for 24 weeks, control group 59.7
  lesion area in % (percentage of arteriosclerotic lesion area in the aortic lumen): 59.0%
WHHL rabbits, oral, 24 weeks
  arteriosclerotic lesion area compared with control / single-administration groups (in words): little affected
